Results from ChEMBL document CHEMBL3621073, “Bile acid amphiphiles with tunable head groups as highly selective antitubercular agents” (Medchemcomm, 2014).
Active and inactive are the calls of the source. The rule behind the calls is not given here.

Legend:
Escherichia coli [1] = test: Antibacterial activity against Escherichia coli MTCC 443 at 8 to 128 uM measured after 1 to 24 hrs by microplate reader assay; format: functional, organism-based
[2] = tested on: Mycolicibacterium smegmatis; test: Antimycobacterial activity against Mycobacterium smegmatis str. MC2 155 after 2 days by inverted microscopic analysis; format: functional; conditions: str. MC2 155, 48 h
[3] = tested on: Mycobacterium tuberculosis; test: Antimycobacterial activity against Mycobacterium tuberculosis H37Rv after 14 days by inverted microscopic analysis; format: functional; conditions: 336 h
[4] = Therapeutic index, ratio of MHC50 for chicken RBC to MIC99 for Mycobacterium tuberculosis H37Rv; conditions: chicken red blood cells, read-out: TI
[5] = Therapeutic index, ratio of MHC50 for sheep RBC to MIC99 for Mycobacterium tuberculosis H37Rv; conditions: sheep red blood cells, read-out: TI
[6] = tested on: Mycolicibacterium smegmatis; test: Antimycobacterial activity against Mycobacterium smegmatis str. MC2 155 after 2 days by inverted microscopic analysis in presence of plasma; format: functional; conditions: str. MC2 155, 48 h
[7] = tested on: Mycobacterium tuberculosis; test: Antimycobacterial activity against Mycobacterium tuberculosis H37Rv after 14 days by inverted microscopic analysis in presence of plasma; format: functional; conditions: 336 h
Escherichia coli [8] = test: Antibacterial activity against Escherichia coli MTCC 443 after 12 hrs by microplate reader assay; format: functional; conditions: MTCC 443, 12 h
Staphylococcus aureus [9] = test: Antibacterial activity against Staphylococcus aureus MTCC 737 after 12 hrs by microplate reader assay; format: functional; conditions: MTCC 737, 12 h
A549 [10] = test: Cytotoxicity against human A549 cells after 48 hrs by MTT assay; format: cell-based; conditions: A549, 48 h
THP-1 = test: Cytotoxicity against human THP1 cells after 48 hrs by MTT assay; format: cell-based; conditions: THP-1, 48 h
A549 [11] = test: Cytotoxicity against human A549 cells assessed as effect on cell cycle phase at 100 uM by propidium iodide staining-based flow cytometry; conditions: a549, 100 µM
Staphylococcus aureus [12] = test: Antibacterial activity against Staphylococcus aureus MTCC 737 at 16 to 256 uM measured after 1 to 24 hrs by microplate reader assay; format: functional, organism-based
[13] = tested on: Mycolicibacterium smegmatis; test: Antimycobacterial activity against Mycobacterium smegmatis str. MC2 155 after 6 to 96 hrs by inverted microscopic analysis relative to control; format: functional
[14] = tested on: Mycolicibacterium smegmatis; test: Antimycobacterial activity against Mycobacterium smegmatis str. MC2 155 assessed as effect on […] by using propidium iodide dye; format: functional, organism-based
Escherichia coli [15] = test: Antibacterial activity against Escherichia coli MTCC 443 assessed as effect membrane morphology by atomic force microscopic analysis; format: functional, organism-based
Escherichia coli [16] = test: Antibacterial activity against Escherichia coli MTCC 443 assessed as effect membrane topology by atomic force microscopic analysis; format: functional, organism-based
Escherichia coli [17] = test: Antibacterial activity against Escherichia coli MTCC 443 after 12 hrs by microplate reader assay in presence of EDTA; format: functional, organism-based
Staphylococcus aureus [18] = test: Antibacterial activity against Staphylococcus aureus MTCC 737 after 12 hrs by microplate reader assay in presence of EDTA; format: functional, organism-based
Lipid bilayer [19] = test: Binding affinity to PE:PG:TDM membrane assessed as dehydration of membrane after 4 hrs
Lipid bilayer [20] = test: Binding affinity to PE:PG:LPS membrane assessed as membrane fluidity after 4 hrs
[21] = Binding affinity to PE:PG membrane assessed as membrane fluidity after 4 hrs
Lipid bilayer [22] = test: Binding affinity to PE:PG:TDM membrane assessed as membrane fluidity after 4 hrs
Staphylococcus aureus [23] = test: Antibacterial activity against Staphylococcus aureus MTCC 737 measured after 1 to 24 hrs by microplate reader assay; format: functional, organism-based
Escherichia coli [24] = test: Antibacterial activity against Escherichia coli MTCC 443 measured after 1 to 24 hrs by microplate reader assay; format: functional, organism-based
Escherichia coli [25] = test: Antibacterial activity against Escherichia coli MTCC 443 assessed as effect on membrane permeabilization by using propidium iodide dye; format: functional, organism-based
Staphylococcus aureus [26] = test: Antibacterial activity against Staphylococcus aureus MTCC 737 assessed as effect on membrane permeabilization by using propidium iodide dye; format: functional, organism-based
Escherichia coli [27] = test: Antibacterial activity against Escherichia coli MTCC 443 assessed as membrane surface indentations by atomic force microscopic analysis; format: functional, organism-based
Escherichia coli [28] = test: Antibacterial activity against Escherichia coli MTCC 443 assessed as micelle-like structures by atomic force microscopic analysis; format: functional, organism-based
Escherichia coli [29] = test: Antibacterial activity against Escherichia coli MTCC 443 assessed as leakage of large amount of cytoplasmic contents by atomic force microscopic analysis; format: functional, organism-based
Lipid bilayer [30] = test: Binding affinity to PE:PG:LPS membrane assessed as dehydration of membrane after 4 hrs
[31] = Binding affinity to PE:PG membrane assessed as dehydration of membrane after 4 hrs

SMILES | MIC99 [2] [µM] | MIC99 [3] [µM] | selectivity ratio [4] | selectivity ratio [5] | MIC99 (Escherichia coli [8]) [µM] | MIC99 (Staphylococcus aureus [9]) [µM] | IC50 (A549 [10]) [µM] | IC50 (THP-1) [µM] | Activity (A549 [11]) | Activity (Escherichia coli [17]) | Activity (Staphylococcus aureus [18]) | Activity (Lipid bilayer [19]) | Activity (Lipid bilayer [20]) | Activity [21] | Activity (Lipid bilayer [22]) | other results
COC(=O)CC[C@@H](C)[C@H]1CC[C@H]2[C@@H]3[C@H](OC(=O)C[n+]4ccc(N(C)C)cc4)C[C@@H]4C[C@H](OC(=O)C[n+]5ccc(N(C)C)cc5)CC[C@]4(C)[C@H]3C[C@H](OC(=O)C[n+]3ccc(N(C)C)cc3)[C@]12C.[Cl-].[Cl-].[Cl-] | 1.56 | 6.25 | > 160 | > 160 | > 512 | 256 | > 200 | > 200 | Non-toxic | Active | Active | inactive | inactive | inactive | Active | Activity (Escherichia coli [1]): inactive; MIC99 [6]: 6.25 µM; MIC99 [7]: 6.25 µM; Activity (Staphylococcus aureus [12]): inactive; fold change (FC) [13]: 10000; Activity [14]: Active; Activity (Escherichia coli [15]): inactive; Activity (Escherichia coli [16]): inactive
COC(=O)CC[C@@H](C)[C@H]1CC[C@H]2[C@@H]3[C@H](OC(=O)CN)C[C@@H]4C[C@H](OC(=O)CN)CC[C@]4(C)[C@H]3C[C@H](OC(=O)CN)[C@]12C.Cl.Cl.Cl | > 50 | > 50 | < 20 | < 20 | 32 | 64 | 75.9 | 38.2 | Non-toxic | Active | Active | Active | inactive | inactive | inactive | Activity (Staphylococcus aureus [23]): Dose-dependent effect; Activity (Escherichia coli [24]): Dose-dependent effect; Activity [13]: inactive; Activity (Escherichia coli [25]): Active; Activity (Staphylococcus aureus [26]): Active; Activity (Escherichia coli [27]): Active; Activity (Escherichia coli [28]): Active; Activity (Escherichia coli [29]): Active; Activity (Lipid bilayer [30]): Active; Activity [31]: Active
